± gives the expanded uncertainty stated by the source.
Assay: molar heat capacity at constant volume; wn = mass fraction of the nth substance listed
Conditions: Fluid (supercritical or subcritical phases), Vacuum adiabatic calorimetry, w1 = 0.5001

Compound: FC(F)C(F)(F)F [pentafluoroethane] + FCF
- molar heat capacity at constant volume (363 K, 13894 kPa): 70.07 ± 1.4 J/K/mol
- molar heat capacity at constant volume (364 K, 6970 kPa): 80.93 ± 1.6 J/K/mol
- molar heat capacity at constant volume (364 K, 7223 kPa): 79.29 ± 1.6 J/K/mol
- molar heat capacity at constant volume (364 K, 7494 kPa): 80.29 ± 1.6 J/K/mol
- molar heat capacity at constant volume (364 K, 7828 kPa): 75.98 ± 1.5 J/K/mol
- molar heat capacity at constant volume (364 K, 10192 kPa): 72.66 ± 1.5 J/K/mol
- molar heat capacity at constant volume (364 K, 14207 kPa): 69.59 ± 1.4 J/K/mol
- molar heat capacity at constant volume (365 K, 7077 kPa): 80.93 ± 1.6 J/K/mol
- molar heat capacity at constant volume (365 K, 7344 kPa): 79.26 ± 1.6 J/K/mol
- molar heat capacity at constant volume (365 K, 7632 kPa): 79.75 ± 1.6 J/K/mol
- molar heat capacity at constant volume (365 K, 7982 kPa): 75.67 ± 1.5 J/K/mol
- molar heat capacity at constant volume (365 K, 10427 kPa): 72.54 ± 1.5 J/K/mol
- molar heat capacity at constant volume (365 K, 14520 kPa): 69.04 ± 1.4 J/K/mol
- molar heat capacity at constant volume (366 K, 7184 kPa): 80.58 ± 1.6 J/K/mol
- molar heat capacity at constant volume (366 K, 7465 kPa): 80.45 ± 1.6 J/K/mol
- molar heat capacity at constant volume (366 K, 7771 kPa): 80.4 ± 1.6 J/K/mol
- molar heat capacity at constant volume (366 K, 8137 kPa): 76.08 ± 1.5 J/K/mol
- molar heat capacity at constant volume (366 K, 10664 kPa): 73.17 ± 1.5 J/K/mol
- molar heat capacity at constant volume (366 K, 14835 kPa): 69.94 ± 1.4 J/K/mol
- molar heat capacity at constant volume (367 K, 7291 kPa): 80.32 ± 1.6 J/K/mol
- molar heat capacity at constant volume (367 K, 7587 kPa): 79.46 ± 1.6 J/K/mol
- molar heat capacity at constant volume (367 K, 7907 kPa): 79.31 ± 1.6 J/K/mol
- molar heat capacity at constant volume (367 K, 8294 kPa): 74.79 ± 1.5 J/K/mol
- molar heat capacity at constant volume (367 K, 10900 kPa): 72.03 ± 1.5 J/K/mol
- molar heat capacity at constant volume (367 K, 15148 kPa): 69.1 ± 1.4 J/K/mol
- molar heat capacity at constant volume (368 K, 7397 kPa): 79.17 ± 1.6 J/K/mol
- molar heat capacity at constant volume (368 K, 7708 kPa): 77.58 ± 1.6 J/K/mol
- molar heat capacity at constant volume (368 K, 8044 kPa): 77.88 ± 1.6 J/K/mol
- molar heat capacity at constant volume (368 K, 8449 kPa): 74.12 ± 1.5 J/K/mol
- molar heat capacity at constant volume (368 K, 11133 kPa): 71.25 ± 1.4 J/K/mol
- molar heat capacity at constant volume (368 K, 15462 kPa): 68.32 ± 1.4 J/K/mol
- molar heat capacity at constant volume (369 K, 7504 kPa): 79.62 ± 1.6 J/K/mol
- molar heat capacity at constant volume (369 K, 7831 kPa): 78.35 ± 1.6 J/K/mol
- molar heat capacity at constant volume (369 K, 8183 kPa): 78.65 ± 1.6 J/K/mol
- molar heat capacity at constant volume (369 K, 8605 kPa): 76.18 ± 1.5 J/K/mol
- molar heat capacity at constant volume (369 K, 11369 kPa): 72.83 ± 1.5 J/K/mol
- molar heat capacity at constant volume (369 K, 15777 kPa): 69.74 ± 1.4 J/K/mol
- molar heat capacity at constant volume (370 K, 7612 kPa): 79.45 ± 1.6 J/K/mol
- molar heat capacity at constant volume (370 K, 7953 kPa): 77.86 ± 1.6 J/K/mol
- molar heat capacity at constant volume (370 K, 8323 kPa): 77.55 ± 1.6 J/K/mol
- molar heat capacity at constant volume (370 K, 8762 kPa): 76.14 ± 1.5 J/K/mol
- molar heat capacity at constant volume (370 K, 11608 kPa): 72.92 ± 1.5 J/K/mol
- molar heat capacity at constant volume (370 K, 16094 kPa): 69.84 ± 1.4 J/K/mol
- molar heat capacity at constant volume (371 K, 7719 kPa): 78.97 ± 1.6 J/K/mol
- molar heat capacity at constant volume (371 K, 8075 kPa): 77.56 ± 1.6 J/K/mol
- molar heat capacity at constant volume (371 K, 8460 kPa): 76.45 ± 1.5 J/K/mol
- molar heat capacity at constant volume (371 K, 8917 kPa): 74.86 ± 1.5 J/K/mol
- molar heat capacity at constant volume (371 K, 11844 kPa): 72.52 ± 1.5 J/K/mol
- molar heat capacity at constant volume (371 K, 16410 kPa): 69.31 ± 1.4 J/K/mol
- molar heat capacity at constant volume (372 K, 7825 kPa): 78.44 ± 1.6 J/K/mol
- molar heat capacity at constant volume (372 K, 8198 kPa): 77.29 ± 1.6 J/K/mol
- molar heat capacity at constant volume (372 K, 8601 kPa): 75.95 ± 1.5 J/K/mol
- molar heat capacity at constant volume (372 K, 9073 kPa): 74.57 ± 1.5 J/K/mol
- molar heat capacity at constant volume (372 K, 12081 kPa): 71.78 ± 1.5 J/K/mol
- molar heat capacity at constant volume (372 K, 16724 kPa): 69.08 ± 1.4 J/K/mol
- molar heat capacity at constant volume (373 K, 7931 kPa): 77.94 ± 1.6 J/K/mol
- molar heat capacity at constant volume (373 K, 8321 kPa): 76.93 ± 1.6 J/K/mol
- molar heat capacity at constant volume (373 K, 8740 kPa): 76.42 ± 1.5 J/K/mol
- molar heat capacity at constant volume (373 K, 9230 kPa): 74.03 ± 1.5 J/K/mol
- molar heat capacity at constant volume (373 K, 12318 kPa): 72.32 ± 1.5 J/K/mol
- molar heat capacity at constant volume (373 K, 17037 kPa): 69.04 ± 1.4 J/K/mol
- molar heat capacity at constant volume (374 K, 8039 kPa): 79.02 ± 1.6 J/K/mol
- molar heat capacity at constant volume (374 K, 8445 kPa): 77.8 ± 1.6 J/K/mol
- molar heat capacity at constant volume (374 K, 8878 kPa): 77.52 ± 1.6 J/K/mol
- molar heat capacity at constant volume (374 K, 9389 kPa): 74.39 ± 1.5 J/K/mol
- molar heat capacity at constant volume (374 K, 12556 kPa): 73.35 ± 1.5 J/K/mol
- molar heat capacity at constant volume (374 K, 17355 kPa): 69.94 ± 1.4 J/K/mol
- molar heat capacity at constant volume (375 K, 8147 kPa): 78.2 ± 1.6 J/K/mol
- molar heat capacity at constant volume (375 K, 8567 kPa): 75.61 ± 1.5 J/K/mol
- molar heat capacity at constant volume (375 K, 9016 kPa): 76.25 ± 1.5 J/K/mol
- molar heat capacity at constant volume (375 K, 9544 kPa): 73.41 ± 1.5 J/K/mol
- molar heat capacity at constant volume (375 K, 12795 kPa): 71.55 ± 1.4 J/K/mol
- molar heat capacity at constant volume (375 K, 17669 kPa): 69.58 ± 1.4 J/K/mol
- molar heat capacity at constant volume (376 K, 8254 kPa): 77.5 ± 1.6 J/K/mol
- molar heat capacity at constant volume (376 K, 8690 kPa): 75.69 ± 1.5 J/K/mol
- molar heat capacity at constant volume (376 K, 9155 kPa): 75.06 ± 1.5 J/K/mol
- molar heat capacity at constant volume (376 K, 9701 kPa): 73.09 ± 1.5 J/K/mol
- molar heat capacity at constant volume (376 K, 13033 kPa): 71.53 ± 1.4 J/K/mol
- molar heat capacity at constant volume (376 K, 17984 kPa): 69.16 ± 1.4 J/K/mol
- molar heat capacity at constant volume (377 K, 8362 kPa): 78.12 ± 1.6 J/K/mol
- molar heat capacity at constant volume (377 K, 8813 kPa): 76.87 ± 1.5 J/K/mol
- molar heat capacity at constant volume (377 K, 9295 kPa): 76.67 ± 1.5 J/K/mol
- molar heat capacity at constant volume (377 K, 9858 kPa): 74.31 ± 1.5 J/K/mol
- molar heat capacity at constant volume (377 K, 13272 kPa): 72.67 ± 1.5 J/K/mol
- molar heat capacity at constant volume (377 K, 18301 kPa): 69.67 ± 1.4 J/K/mol
- molar heat capacity at constant volume (378 K, 8469 kPa): 77.78 ± 1.6 J/K/mol
- molar heat capacity at constant volume (378 K, 8937 kPa): 76.5 ± 1.5 J/K/mol
- molar heat capacity at constant volume (378 K, 9437 kPa): 77.01 ± 1.6 J/K/mol
- molar heat capacity at constant volume (378 K, 10018 kPa): 74.83 ± 1.5 J/K/mol
- molar heat capacity at constant volume (378 K, 13511 kPa): 71.98 ± 1.5 J/K/mol
- molar heat capacity at constant volume (378 K, 18619 kPa): 69.86 ± 1.4 J/K/mol
- molar heat capacity at constant volume (379 K, 8575 kPa): 76.76 ± 1.5 J/K/mol
- molar heat capacity at constant volume (379 K, 9060 kPa): 75.82 ± 1.5 J/K/mol
- molar heat capacity at constant volume (379 K, 9576 kPa): 76.42 ± 1.5 J/K/mol
- molar heat capacity at constant volume (379 K, 10174 kPa): 74.57 ± 1.5 J/K/mol
- molar heat capacity at constant volume (379 K, 13747 kPa): 71.87 ± 1.5 J/K/mol
- molar heat capacity at constant volume (379 K, 18935 kPa): 70.14 ± 1.4 J/K/mol
- molar heat capacity at constant volume (380 K, 8683 kPa): 76.61 ± 1.5 J/K/mol

From the NIST ThermoML archive (doi:10.1021/je0501843)
